Laboratory results from ChEMBL document CHEMBL1201862, “PubChem BioAssay data set” (2004).
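Method: 48-hour compound exposure of cells in 96-well plates, five concentrations, linear interpolation of endpoints. Here, GI50 denotes the concentration required for 50% inhibition of growth.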 Active and inactive are the calls of the source. Rule as the data show it: active = GI50 up to about 1.1 µM and inactive = higher.

Assays:
Test in all cases: NCI tumour cell line growth inhibition, 48 h
ACHN = tested on: ACHN
DLD-1 = tested on: DLD-1
DMS-114 = tested on: DMS-114
HL-60 = tested on: HL-60
HOP-18 = tested on: HOP-18
IGROV-1 = tested on: IGROV-1
MOLT-4 = tested on: MOLT-4
NCI-H226 = tested on: NCI-H226
OVCAR-8 = tested on: OVCAR-8
RPMI-8226 = tested on: RPMI-8226
SK-MEL-28 = tested on: SK-MEL-28
SK-OV-3 = tested on: SK-OV-3
SN12C = tested on: SN12C
SNB-78 = tested on: SNB-78
SW-620 = tested on: SW-620
XF498 = tested on: XF498
SK-MEL-5 = tested on: SK-MEL-5
UACC-62 = tested on: UACC-62

Measured: GI50

CC1=C/C(=C2/N=C(N(C)C)SS2)C(C)=N1.[O-][Cl+3]([O-])([O-])O
inactive: ACHN > 100 µM | DLD-1 > 100 µM | DMS-114 > 100 µM | HL-60 > 100 µM | HOP-18 > 100 µM | IGROV-1 > 100 µM | MOLT-4 > 100 µM | NCI-H226 > 100 µM | OVCAR-8 > 100 µM | RPMI-8226 > 100 µM | SK-MEL-28 > 100 µM | SK-OV-3 > 100 µM | SN12C > 100 µM | SNB-78 > 100 µM | SW-620 > 100 µM | XF498 > 100 µM

COc1nc2c(nc(N)n2C2OC(CO)C(O)C(O)C2O)c(=O)[nH]1 (configuration not stated)
inactive: ACHN > 100 µM | DLD-1 > 100 µM | HL-60 > 100 µM | HOP-18 > 100 µM | IGROV-1 > 100 µM | NCI-H226 > 100 µM | OVCAR-8 > 100 µM | SK-MEL-28 > 100 µM | SK-MEL-5 > 100 µM | SK-OV-3 > 100 µM | SN12C > 100 µM | SNB-78 > 100 µM | SW-620 > 100 µM | UACC-62 > 100 µM | XF498 > 100 µM

COc1ccc(OC)c2c(C(=O)O)c(Cc3ccccc3)ccc12
inactive: ACHN > 100 µM | DLD-1 > 100 µM | DMS-114 > 100 µM | HL-60 > 100 µM | HOP-18 > 100 µM | IGROV-1 > 100 µM | MOLT-4 > 100 µM | NCI-H226 > 100 µM | OVCAR-8 > 100 µM | SK-MEL-28 > 100 µM | SK-MEL-5 > 100 µM | SK-OV-3 > 100 µM | SN12C > 100 µM | SW-620 > 100 µM | UACC-62 > 100 µM | XF498 > 100 µM

O=S(=O)(SCc1ccccc1)C(c1ccccc1)c1ccccc1
inactive: ACHN 37.8 µM | DLD-1 13.2 µM | DMS-114 19.3 µM | HL-60 5.52 µM | IGROV-1 32.7 µM | MOLT-4 3.7 µM | NCI-H226 22.5 µM | OVCAR-8 19.8 µM | RPMI-8226 25 µM | SK-MEL-28 48.3 µM | SK-MEL-5 22.5 µM | SK-OV-3 > 100 µM | SN12C 24.1 µM | SNB-78 30.5 µM | SW-620 7.4 µM | UACC-62 27.5 µM | XF498 58.1 µM

C(=C\c1cc(CCc2nc3ccccc3[nH]2)n[nH]1)/c1ccccc1
inactive: ACHN > 100 µM | DLD-1 > 100 µM | DMS-114 > 100 µM | HL-60 > 100 µM | HOP-18 > 100 µM | IGROV-1 > 100 µM | MOLT-4 > 100 µM | NCI-H226 > 100 µM | OVCAR-8 > 100 µM | RPMI-8226 > 100 µM | SK-MEL-28 > 100 µM | SK-MEL-5 > 100 µM | SK-OV-3 > 100 µM | SN12C > 100 µM | SW-620 > 100 µM | UACC-62 > 100 µM | XF498 > 100 µM

CCCCCCCCCCCCOC(=S)NC
inactive: ACHN 20 µM | DLD-1 17.1 µM | DMS-114 20.8 µM | HL-60 27.6 µM | HOP-18 19 µM | IGROV-1 18 µM | MOLT-4 13.1 µM | NCI-H226 4.25 µM | OVCAR-8 18.6 µM | RPMI-8226 16.9 µM | SK-MEL-28 20 µM | SK-OV-3 27 µM | SN12C 17.7 µM | SNB-78 27.8 µM | SW-620 18.3 µM | UACC-62 17.1 µM | XF498 20 µM

COC1C=C(Nc2cccc(Cl)c2)C(=O)C1 (configuration not stated)
inactive: ACHN 60 µM | DLD-1 51.4 µM | DMS-114 34.3 µM | HL-60 36 µM | HOP-18 19.1 µM | IGROV-1 > 100 µM | MOLT-4 49.3 µM | NCI-H226 36.4 µM | OVCAR-8 96.2 µM | SK-MEL-28 > 100 µM | SK-MEL-5 83 µM | SK-OV-3 48.8 µM | SN12C 64.9 µM | SNB-78 48.4 µM | SW-620 53.2 µM | UACC-62 60 µM | XF498 26.9 µM

CCOC(=O)NC1C2CC(=O)C(O2)C1OCc1ccccc1 (configuration not stated)
inactive: ACHN > 100 µM | DLD-1 > 100 µM | DMS-114 > 100 µM | HL-60 > 100 µM | HOP-18 > 100 µM | IGROV-1 > 100 µM | MOLT-4 > 100 µM | NCI-H226 > 100 µM | RPMI-8226 > 100 µM | SK-MEL-28 > 100 µM | SK-MEL-5 > 100 µM | SK-OV-3 > 100 µM | SN12C > 100 µM | SNB-78 > 100 µM | SW-620 > 100 µM | UACC-62 > 100 µM | XF498 > 100 µM
